Results from patent publication US20130216533A1, “BIOLOGICAL MARKERS FOR IDENTIFYING PATIENTS FOR TREATMENT WITH VEGF ANTAGONISTS” (Genentech, Inc., priority 2012, published 2013).

Experiments:
[1] = tested on: metastatic colorectal carcinoma (CRC); conditions: cited from earlier work
[2] = tested on: VDV signature genes in Human Inflammatory Breast Cancer; conditions: 19 inflammatory breast cancer patients; one dose as single agent; 21 days post-treatment; published micro-array data; cited from earlier work
[3] = tested on: metastatic colorectal carcinoma (CRC); assay: NO16966 first-line metastatic CRC trial, PFS and OS stratified by 22-gene VDV signature; type: in vivo, human
Protocol: Sections from archival tumor samples from patients enrolled in the XELOX treatment arms of NO 16966 were evaluated by a pathologist and high tumor content area macro-dissected for subsequent RNA isolation using the FFPE RNA isolation kit (Roche; 7-10 sections per patient). RNA levels were assessed after cDNA synthesis following standard techniques, with the qPCR protocol on the Fluidigm Biomark platform according to the manufacturer's protocol.
Quantitative histological data from various animal experiments were plotted using Microsoft Excel software. Student's t test was applied to compare data sets of interest and differences with p values <0.05 were considered significant. 103 biopsies out of 1017 patients from the XELOX (capecitabine and oxaliplatin)-containing arm in the NO16966 trial were analyzed for the gene expression of VDV genes. qRT-PCR values were normalized by the housekeeping genes and relative to a universal reference sample to derive delta-delta Ct values. Subsequently, the delta-delta Ct value of each of the 22 VDV genes was mean centered and variance scaled to a Z-score.
For each sample i for which all of the VDV genes were analyzed, a VDV signature score (VDVi) was calculated. The VDVi represents a weighted average of z-scores across the analyzed VDV genes and is given by the algorithm:
wherein Zg,i is the standardized z-score of the qRT-PCR value for gene g of sample i and n, in this instance, is 22. The VDVi value provides quantitative information regarding the extent to which the expression of a particular set of genes is collectively overexpressed or underexpressed relative to a centered mean.
To compare the clinical outcomes (PFS and OS) between marker and/or treatment subgroups, log-rank tests and Cox regression were used, with median time calculated by the Kaplan-Meier analysis. All statistical tests were two-sided.
To test if VDV gene expression could correlate with clinical outcomes, we analyzed VDV gene expression levels in available pre-treatment archival tumor tissue from 103 patients (biomarker evaluable subpopulation) that were enrolled in the XELOX-containing arms. Due to the limited quality and amount of RNA from these clinical samples, gene expression was analyzed in a previously designed and validated “angiogenesis” Fluidigm qRT-PCR chip (FIG. 8B) that included 4 different housekeeping genes (for gene expression normalization), VEGF (as a control), and 22 representative proximal and distal VDV genes comprising: (i) pan-vascular markers such as CD31, CD34, and VE-CADH as indicators of MVD; (ii) key VEGF pathway components and proxVDV genes, including VEGFR-1, VEGFR-2, VEGFR-3, EPHRINB2, NRPs, ESM1, NID2, COL4a2, and LAMA4a; and (iii) additional VDV genes that are components of endothelial signaling pathways and potential modulators of VDV biology, including DLL-4, NOTCH1, ALK1, and EGFL7 (see FIG. 9A for validation of this compacted 22 VDV gene signature).
In these patients, the addition of bevacizumab to chemotherapy provided a statistically significant PFS (HR, 0.59; 95% CI, 0.37 to 0.93; p=0.024) and OS benefit (HR, 0.45; 95% CI, 0.23 to 0.85; p=0.015). […] We then tested the correlation between clinical outcomes and “high” or “low” pre-treatment gene expression. […] In contrast, in “VDV high” patients (FIG. 8D, solid lines), the addition of bevacizumab to chemotherapy vs chemotherapy alone provided a marked and significant PFS(HR, 0.36; 95% CI, 0.17 to 0.77; p=0.0079) and OS (HR, 0.31; 95% CI, 0.11 to 0.93; p=0.036) benefit. […] Thus, in this relatively small 103-patient sample set, the higher expression of a collective VDV gene subset correlates specifically with the improved clinical outcome provided by bevacizumab addition to chemotherapy, and has a predictive effect with respect to PFS.

[4] = addition to oxaliplatin-based chemotherapy, Saltz et al. 2008

For “bevacizumab: recombinant humanized anti-VEGF monoclonal antibody generated according to Presta et al. (1997)”, the “OS differences (secondary endpoint), whole NO16966 study” value [1, 4] is given as “did not reach statistical significance”, the “PFS (primary endpoint), whole NO16966 study” value [1, 4] is given as “significantly improved” and the “PFS and OS in metastatic CRC” value ([1]; in combination with chemotherapy, Hurwitz et al. 2004) is given as “increase progression free survival (PFS) and overall survival (OS)”. For the same substance, the “VDV transcripts post-treatment vs pre-treatment biopsies” value [2] was “clear down regulation of VDV transcripts”, the “PFS HR” value ([3]; 103 biomarker evaluable patients, addition to chemotherapy (XELOX) vs chemotherapy, 95% CI 0.37 to 0.93, p=0.024) was 0.59 and the “OS HR” value ([3]; 103 biomarker evaluable patients, addition to chemotherapy (XELOX), 95% CI 0.23 to 0.85, p=0.015) was 0.45. For the same substance, the “OS HR” value ([3]; "VDV high" patients, 95% CI 0.11 to 0.93, p=0.036) was 0.31, the “PFS HR” value ([3]; "VDV high" patients, addition to chemotherapy vs chemotherapy alone, 95% CI 0.17 to 0.77, p=0.0079) was 0.36 and the “OS HR” value ([3]; "VDV low" patients, 95% CI 0.25 to 1.33, p=0.2) was 0.58. For the same substance, the “PFS HR” value ([3]; "VDV low" patients, combination with chemotherapy vs chemotherapy alone, 95% CI 0.47 to 1.62, p=0.67) was 0.88.
